As usually defined, the hepatocyte CLint is a measure of how fast metabolising enzymes remove a compound, apart from limits set by blood flow.

We go through 10 molecules from US20240025852A1, “T-TYPE CALCIUM CHANNEL MODULATORS AND METHODS OF USE THEREOF” (PRAXIS PRECISION MEDICINES, INC., priority 2020, published 2024).

The nature of series [1]: Hμrel Low Clearance Assay. The class given is in vitro ADME, human. More on the design: % of Control (intrinsic clearance relative to the control compound): tested at 1 µM. The conditions noted are these: HμRELhumanPool 96-well hepatic co-culture, human hepatic co-culture, 1 μM substrate, 0-72 hr incubation, control = geometric mean of 3 replicates. The method, then:
(§1) The Hμrel Low Clearance Assay was performed to determine the stability of deuterated compounds described herein and calculate changes in clearance relative to the control compound (undeuterated compound) that has the following structure:
(§2) HμRELhumanPool™ 96-well hepatic co-culture plates were media changed and cells were allowed to acclimatize at 37° C. for 20 hr. HμREL® incubation media (serum free) and test compound diluted from a 1000×DMSO stock (final substrate concentration 1 μM; final DMSO concentration 0.1%) were added to the HμREL© 96-well co-culture system at a final cell number of 30,000 cells per well to initiate the reaction. The final incubation volume was 80 μL per time point and two control compounds were included for reference (ketoprofen and prednisolone). All clearance assessments were performed in singlicate with the exception of the undeuterated control compound, which was tested in duplicate on two separate days for a total of 4 replicates. Each compound was incubated for 0, 2, 6, 24, 48 and 72 hr. The reactions were terminated by transferring 60 μL of incubate to 180 μL acetonitrile containing internal standard at the appropriate time points. The crash plates were centrifuged at 3000 rpm at 4° C. for 20 min to precipitate residual protein. Following protein precipitation, sample supernatants were combined in cassettes of up to 4 compounds and analyzed using generic LCMS/MS conditions.
(§3) LC-MS/MS chromatograms were analyzed by peak area ratio (test article peak area/internal standard peak area) and natural log transformed, and plotted against time. The slope of the line was determined to calculate elimination rate constant. Subsequently, half-life (t1/2) and intrinsic clearance (CLint) were calculated using the following equations: […]
(§4) Average clearance of the control compound was determined by taking the geometric mean of 3 of the four replicates. The fourth replicate was excluded from the average determination as an outlier.

Series [2] relates to HμRELhumanPool 96-well hepatic co-culture. The series is described as follows: Hμrel Low Clearance Assay. The class given is in vitro ADME, human. More on the design: % of Control (intrinsic clearance relative to the control compound): tested at 1 µM. Particulars: for Half-Life: human hepatic co-culture, 1 μM substrate, 0-72 hr incubation; for % of Control (intrinsic clearance relative to the control compound): observed CLint divided by average CLint of undeuterated control compound. The method, then: as §1, §2, §3, §4

Series [3] has as its target T1, Recombinant CYP3A4 Supersomes (Homo sapiens, UniProt P08684).
T1 construct: purchased
The series is described as follows: Recombinant CYP3A4 Clearance Assay. The series is classed as in vitro ADME. The conditions noted are these: for % of Control (intrinsic clearance relative to the control compound): observed CLint divided by average CLint of undeuterated control compound; for Half-Life / CLint: recombinant CYP3A4 50 pmol/mL, 1 μM substrate, NADPH; for Half-Life: 0-120 minutes; for CLint: control = geometric mean of 3 replicates. The method, then:
The CYP3A4 Clearance Assay was performed to determine the stability of deuterated compounds described herein and calculate changes in clearance relative to the control compound (undeuterated compound) that has the following structure:
Recombinant CYP3A4 Supersomes were prepared in 100 mM potassium phosphate buffer (50 pmol/mL final recombinase) and 80 μL aliquots were delivered per well to 96-well reaction plates containing 10 μL/well stock working solution containing substrate at 10× final concentration in 0.1:9.9:90 DMSO:ACN:100 mM phosphate buffer. Final substrate concentration during incubation was 1 μM. Reaction mixtures were pre-incubated at 37° C. for 10 minutes, prior to addition of 10 μL/well of NADPH regenerating system to initiate the reaction (β-Nicotinamide adenine dinucleotide phosphate) or 100 mM phosphate as a buffer control.
Clearance assessments were performed for test compounds in singlicate except for the control compound, which was tested in triplicate. Incubations were maintained at 37° C. for 0, 5, 15, 30, 45, 60, 90, and 120 minutes (or 0 and 120 minutes for buffer control). The reactions were terminated with 3× volume of cold (4° C.) acetonitrile (ACN) containing 200 ng/mL tolbutamide and 200 ng/mL labetalol as internal standards (IS). The crash plates were centrifuged at 4000 rpm at 4° C. for 20 min to precipitate residual protein. Following protein precipitation, sample supernatants were harvested and 3× volume of HPLC grade water was added to each sample for chromatography purposes. Plates were sealed and shaken for 10 minutes prior to LC-MS/MS analysis using generic LCMS/MS conditions.
as §3
Average intrinsic clearance of the control compound was determined by taking the geometric mean of 3 replicates.

T1 sequence (P08684 whole entry): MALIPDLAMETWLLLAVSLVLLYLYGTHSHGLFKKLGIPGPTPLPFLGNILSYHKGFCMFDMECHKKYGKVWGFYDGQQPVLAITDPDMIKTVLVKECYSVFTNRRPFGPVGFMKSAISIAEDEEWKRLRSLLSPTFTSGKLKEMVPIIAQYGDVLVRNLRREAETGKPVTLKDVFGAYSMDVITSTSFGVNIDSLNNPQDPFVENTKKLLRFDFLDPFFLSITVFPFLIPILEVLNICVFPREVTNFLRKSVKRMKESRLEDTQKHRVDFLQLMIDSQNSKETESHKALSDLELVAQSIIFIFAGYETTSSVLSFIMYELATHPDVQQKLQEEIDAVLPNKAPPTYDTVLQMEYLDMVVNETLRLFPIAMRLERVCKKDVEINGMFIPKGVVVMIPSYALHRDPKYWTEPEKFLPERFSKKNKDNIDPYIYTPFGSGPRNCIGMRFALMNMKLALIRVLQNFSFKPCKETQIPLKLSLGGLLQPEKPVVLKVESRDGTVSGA

Molecule `[2H]C([2H])([2H])C(C)(NC(=O)CN1CCC(CNC(=O)c2cc(F)cc(Cl)c2)CC1)C([2H])([2H])[2H]` [Compound 14, 3-chloro-5-fluoro-N-[[1-[2-oxo-2-[[2,2,2-trideuterio-1-methyl-1-(trideuteriomethyl)ethyl]amino]ethyl]-4-piperidyl]methyl]benzamide] gave a hepatocyte CLint at 1 μM in series [1] (human) of 0.885 µL/min/1e6 cells. For the same molecule, in series [2], the Half-Life came to 34.83 h and the “% of Control (intrinsic clearance relative to the control compound)” value was 62.5%. In series [3], the “% of Control (intrinsic clearance relative to the control compound)” value was 105%, the Half-Life was 0.125 h and the CLint is 1.85 µL/min/pmol.

With `[2H]C([2H])(C(=O)NC(C([2H])([2H])[2H])(C([2H])([2H])[2H])C([2H])([2H])[2H])N1CCC(CNC(=O)c2cc(F)cc(Cl)c2)CC1` [Compound 15, 3-chloro-N-[[1-[1,1-dideuterio-2-oxo-2-[[2,2,2-trideuterio-1,1-bis(trideuteriomethyl)ethyl]amino]ethyl]-4-piperidyl]methyl]-5-fluoro-benzamide], the hepatocyte CLint at 1 μM in series [1] (human) worked out at 1.35 µL/min/1e6 cells. In addition, in series [2], the Half-Life worked out at 22.67 h and the “% of Control (intrinsic clearance relative to the control compound)” value worked out at 95.4%. Also, in series [3], the “% of Control (intrinsic clearance relative to the control compound)” value is on record as 82.9%, the Half-Life came to 0.158 h and the CLint was 1.46 µL/min/pmol.

In series [1], `[2H]C1([2H])CC(CNC(=O)c2cc(F)cc(Cl)c2)CC([2H])([2H])N1CC(=O)NC(C([2H])([2H])[2H])(C([2H])([2H])[2H])C([2H])([2H])[2H]` [Compound 16, 3-chloro-5-fluoro-N-[[2,2,6,6-tetradeuterio-1-[2-oxo-2-[[2,2,2-trideuterio-1,1-bis(trideuteriomethyl)ethyl]amino]ethyl]-4-piperidyl]methyl]benzamide] returned a hepatocyte CLint at 1 μM of 1.08 µL/min/1e6 cells. Also, in series [2], the Half-Life was determined as 28.33 h and the “% of Control (intrinsic clearance relative to the control compound)” value is listed as 76.3%. Besides, in series [3], the “% of Control (intrinsic clearance relative to the control compound)” value is listed as 61.4%, the Half-Life is 0.213 h and the CLint stood at 1.08 µL/min/pmol.

As to `[2H]C([2H])(C(=O)NC(C)(C([2H])([2H])[2H])C([2H])([2H])[2H])N1CCC(CNC(=O)c2cc(F)cc(Cl)c2)CC1` [Compound 17, 3-chloro-N-[[1-[1,1-dideuterio-2-oxo-2-[[2,2,2-trideuterio-1-methyl-1-(trideuteriomethyl)ethyl]amino]ethyl]-4-piperidyl]methyl]-5-fluoro-benzamide], in series [1] (human), the hepatocyte CLint at 1 μM amounted to 1.18 µL/min/1e6 cells. In series [2], the Half-Life turned out to be 26.17 h and the “% of Control (intrinsic clearance relative to the control compound)” value amounted to 83.4%. Besides, in series [3], the “% of Control (intrinsic clearance relative to the control compound)” value was 72.2%, the Half-Life stood at 0.182 h and the CLint is 1.27 µL/min/pmol.

Consider `[2H]C1([2H])CC(CNC(=O)c2cc(F)cc(Cl)c2)CC([2H])([2H])N1CC(=O)NC(C)(C([2H])([2H])[2H])C([2H])([2H])[2H]` [Compound 19, 3-chloro-5-fluoro-N-[[2,2,6,6-tetradeuterio-1-[2-oxo-2-[[2,2,2-trideuterio-1-methyl-1-(trideuteriomethyl)ethyl]amino]ethyl]-4-piperidyl]methyl]benzamide], for which the hepatocyte CLint at 1 μM in series [1] (human) amounted to 0.718 µL/min/1e6 cells. For the same molecule, in series [2], the Half-Life came out at 43 h and the “% of Control (intrinsic clearance relative to the control compound)” value is reported as 51.5%. Further, in series [3], the “% of Control (intrinsic clearance relative to the control compound)” value is on record as 62.2%, the Half-Life turned out to be 0.212 h and the CLint stood at 1.09 µL/min/pmol.

`[2H]C([2H])([2H])C(C)(NC(=O)CN1C([2H])([2H])C([2H])([2H])C([2H])(CNC(=O)c2cc(F)cc(Cl)c2)C([2H])([2H])C1([2H])[2H])C([2H])([2H])[2H]` [Compound 20, 3-chloro-5-fluoro-N-[[2,2,3,3,4,5,5,6,6-nonadeuterio-1-[2-oxo-2-[[2,2,2-trideuterio-1-methyl-1-(trideuteriomethyl)ethyl]amino]ethyl]-4-piperidyl]methyl]benzamide]: the hepatocyte CLint at 1 μM in series [1] (human) was 0.803 µL/min/1e6 cells. Moreover, in series [2], the Half-Life was 38.33 h and the “% of Control (intrinsic clearance relative to the control compound)” value amounted to 56.7%. For the same molecule, in series [3], the “% of Control (intrinsic clearance relative to the control compound)” value was found to be 61.5%, the Half-Life was found to be 0.213 h and the CLint was 1.08 µL/min/pmol.

In series [1] (human), `[2H]C([2H])(C(=O)NC(C)(C)C([2H])([2H])[2H])N1CCC(CNC(=O)c2cc(F)cc(Cl)c2)CC1` [Compound 21, 3-chloro-N-[[1-[1,1-dideuterio-2-oxo-2-[(2,2,2-trideuterio-1,1-dimethyl-ethyl)amino]ethyl]-4-piperidyl]methyl]-5-fluoro-benzamide] came in with an intrinsic metabolic clearance (hepatocyte CLint) at 1 μM of 1.46 µL/min/1e6 cells. Also, in series [2], the Half-Life is 21.17 h and the “% of Control (intrinsic clearance relative to the control compound)” value was found to be 103%. In series [3], the “% of Control (intrinsic clearance relative to the control compound)” value was 94.4%, the Half-Life came to 0.138 h and the CLint was 1.66 µL/min/pmol.

With `[2H]C1([2H])CC(CNC(=O)c2cc(F)cc(Cl)c2)CC([2H])([2H])N1CC(=O)NC(C)(C)C([2H])([2H])[2H]` [Compound 22, 3-chloro-5-fluoro-N-[[2,2,6,6-tetradeuterio-1-[2-oxo-2-[(2,2,2-trideuterio-1,1-dimethyl-ethyl)amino]ethyl]-4-piperidyl]methyl]benzamide], the hepatocyte CLint at 1 μM in series [1] (human) stood at 0.872 µL/min/1e6 cells. In addition, in series [2], the Half-Life was determined as 35.33 h and the “% of Control (intrinsic clearance relative to the control compound)” value was found to be 62.6%. In series [3], the “% of Control (intrinsic clearance relative to the control compound)” value worked out at 87.5%, the Half-Life is 0.15 h and the CLint was determined as 1.54 µL/min/pmol.

Regarding `[2H]C1([2H])CN(CC(=O)NC(C)(C([2H])([2H])[2H])C([2H])([2H])[2H])CC([2H])([2H])C1CNC(=O)c1cc(F)cc(Cl)c1` [Compound 23, 3-chloro-5-fluoro-N-[[3,3,5,5-tetradeuterio-1-[2-oxo-2-[[2,2,2-trideuterio-1-methyl-1-(trideuteriomethyl)ethyl]amino]ethyl]-4-piperidyl]methyl]benzamide], the hepatocyte CLint at 1 μM in series [1] (human) is 0.908 µL/min/1e6 cells. Besides, in series [2], the Half-Life was 34 h and the “% of Control (intrinsic clearance relative to the control compound)” value came to 65.2%. In addition, in series [3], the “% of Control (intrinsic clearance relative to the control compound)” value is given as 86.2%, the Half-Life came out at 0.152 h and the CLint came to 1.52 µL/min/pmol.

For `CC(C)(C)NC(=O)CN1CCC(CNC(=O)c2cc(F)cc(Cl)c2)CC1` [Control, reference compound], the hepatocyte CLint at 1 μM in series [1] (human) turned out to be 1.42 µL/min/1e6 cells. Also, in series [2], the Half-Life worked out at 22.17 h and the “% of Control (intrinsic clearance relative to the control compound)” value is 100%. In addition, in series [3], the “% of Control (intrinsic clearance relative to the control compound)” value is 100%, the Half-Life was 0.132 h and the CLint stood at 1.76 µL/min/pmol.
